In brackets after ≈: the same amount, converted by molar mass. Read-outs that look alike come from different tables or passages of the source. Numbered stars: 1 amine (or outer) side, 2 acyl side, 3 side chain; on linkers, the order of the positions; unused ones are H or OH. Bridge positions count the residues as written; N and C are the ends. Side chains are listed from the residue outwards. Peptide text beside a SMILES is read from it. * marks the point of attachment. C20 diacid = O=C(O)CCCCCCCCCCCCCCCCCCC(=O)*; γGlu = O=C(O)[C@H](CCC(=O)[*:2])N[*:1]
Experiments:
[1] = ASSAY (IV) determination of solubility; type: physicochemical
Summary of the method: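 Dissolve polypeptide in water ([…] stock); combine 1:1 with each 100 mM buffer (glycylglycine pH 3.0/4.0/5.0; bistrispropane pH 6.0/6.5/7.0/7.5/8.0); hold 18 hours at room temperature; centrifuge; quantify polypeptide by UPLC.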

Male Wistar rats = test: ASSAY (XII) effect from single subcutaneous administration on plasma calcium in rats; type: in vivo, rat
Experimental: Assay (XII)—Effect from Single Subcutaneous Administration of Analogue on Plasma Calcium in Rats
Male Wistar rats (Taconic Europe, ˜250 g at test date) were acclimatized to handling prior to the study. Rats were divided in groups of five and subcutaneously dosed with test compound at time=0. At time T=−15 min; 1 h, 2 h, 4 h, 7 h, 12 h, and 24 h a blood sample was obtained and heparin stabilized plasma was analysed for total calcium (Cobas, Hitachi). Data are illustrated in graphs as mean±SEM.

Male Sprague-Dawley rats = test: ASSAY (XI) single subcutaneous administration, food intake monitored for 48 hours in rats; type: in vivo, rat; conditions: single s.c., 30 nmol/kg, compared to vehicle
Excerpt: Assay (XI)—Effect from Single Subcutaneous Administration of Analogue on Plasma Calcium in Rats
Male Sprague-Dawley rats (Taconic Europe, ˜250 g at test date) were acclimatized to reversed day light cycle (lights on from 10 PM to 10 AM) and single housing in online food intake monitoring system (Ellegaard MBRose, Denmark) prior to study start. […] Data are illustrated in graphs as mean±SEM.

[2] = target: T1, human calcitonin receptor (Homo sapiens, UniProt P30988); test: ASSAY (VII) binding to the human calcitonin receptor (SPA, 125I-Calcitonin); conditions: read-out: hCTR bind IC50;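 further: cell membranes (35 ng/µL) combined with SPA beads in 40 µL of pH 7.4 Hepes buffer, 384-well format, signal counted on a TopCounter instrument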
T1 construct: expressed in transfected cells
T1 sequence (P30988 25-474): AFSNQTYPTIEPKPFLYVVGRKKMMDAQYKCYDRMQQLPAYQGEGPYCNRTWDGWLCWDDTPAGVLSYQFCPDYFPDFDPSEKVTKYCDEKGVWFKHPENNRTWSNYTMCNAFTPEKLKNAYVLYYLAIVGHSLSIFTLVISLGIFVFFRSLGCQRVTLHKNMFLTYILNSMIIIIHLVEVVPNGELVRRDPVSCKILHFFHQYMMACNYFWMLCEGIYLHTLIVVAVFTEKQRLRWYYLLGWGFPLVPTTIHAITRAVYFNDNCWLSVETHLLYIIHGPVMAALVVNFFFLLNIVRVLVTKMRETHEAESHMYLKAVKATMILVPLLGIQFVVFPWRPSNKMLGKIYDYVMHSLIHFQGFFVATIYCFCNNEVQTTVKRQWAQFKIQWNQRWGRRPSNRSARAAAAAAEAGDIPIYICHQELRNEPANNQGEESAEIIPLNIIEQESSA

[3] = target: T2, human calcitonin (a) receptor in BHK570 cells (Homo sapiens, UniProt P30988); test: ASSAY (II)a functional assay, human calcitonin receptor (CRE luciferase); type: cell-based; conditions: read-out: hCTR funct. EC50
T2 construct: expressed in transfected cells
T2 sequence (P30988 25-474): T1 sequence (P30988 25-474)
Summary of the method: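 BHK cells stably carrying a CRE-luciferase reporter plus calcitonin receptor, or calcitonin receptor with RAMP-3 for the amylin 3(a) receptor, were seeded and kept overnight at 37° C. Compounds were added in assay medium with 10% FBS and 10 mM Hepes, pH 7.4, for 3 hours at 37° C, then luminescence was counted.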

[4] = bistrispropane buffer, pH 6.5, read-out: Solubility pH 6.5 Concentration
[5] = bistrispropane buffer, pH 7.5, read-out: Solubility pH 7.5 Concentration
[6] = bistrispropane buffer, pH 6.0, read-out: Solubility pH 6.0 Concentration
[7] = bistrispropane buffer, pH 7.0, read-out: Solubility pH 7.0 Concentration
[8] = bistrispropane buffer, pH 8.0, read-out: Solubility pH 8.0 Concentration
[9] = glycylglycine buffer, pH 3.0, read-out: Solubility pH 3.0 Concentration
[10] = glycylglycine buffer, pH 4.0, read-out: Solubility pH 4.0 Concentration
[11] = glycylglycine buffer, pH 5.0, read-out: Solubility pH 5.0 Concentration

solubility at 18 h [1, 4] | solubility at 18 h [1, 5] | solubility at 18 h [1, 6] | solubility at 18 h [1, 7] | solubility at 18 h [1, 8] | solubility at 18 h [1, 9] | solubility at 18 h [1, 10] | solubility at 18 h [1, 11] | Plasma calcium red (%) 0-12 h (maximal) (Male Wistar rats; single s.c., 30 nmol/kg, 0-12 h, compared to vehicle) | IC50 [2] | EC50 [3] | SMILES | suppression of plasma calcium level relative to vehicle (Male Wistar rats; single subcutaneous 30 nmol/kg, monitored over 24 hours) | Food intake red (%) 0-24 h (Male Sprague-Dawley rats; 0-24 h) | Food intake red (%) 24-48 h (Male Sprague-Dawley rats; 24-48 h)
≥ 200 µM | 183 µM (≈ 812 µg/mL) | ≥ 200 µM | ≥ 200 µM | 109 µM (≈ 484 µg/mL) | ≥ 200 µM | ≥ 200 µM | ≥ 200 µM | 10% | – | – | CC[C@H](C)[C@H](NC(=O)[C@H](C)NC(=O)CNC(=O)[C@H](Cc1ccccc1)NC(=O)[C@H](CC(N)=O)NC(=O)[C@@H]1CCCN1C(=O)[C@H](CO)NC(=O)[C@H](CO)NC(=O)[C@H](Cc1c[nH]cn1)NC(=O)[C@H](CCCNC(=N)N)NC(=O)[C@H](CC(C)C)NC(=O)[C@H](Cc1ccccc1)NC(=O)[C@H](CCC(=O)O)NC(=O)[C@H](C)NC(=O)[C@H](CC(C)C)NC(=O)[C@H](CCCNC(=N)N)NC(=O)[C@H](CCC(N)=O)NC(=O)[C@@H](NC(=O)[C@H](C)NC(=O)[C@@H]1CSSC[C@H](NC(=O)[C@@H](N)CCCCNC(=O)CC[C@H](NC(=O)CCCCCCCCCCCCCCCCCCC(=O)O)C(=O)O)C(=O)N[C@@H](CC(N)=O)C(=O)N[C@@H]([C@@H](C)O)C(=O)N[C@@H](C)C(=O)N[C@@H]([C@@H](C)O)C(=O)N1)[C@@H](C)O)C(=O)N1CCC[C@H]1C(=O)N[C@@H](CO)C(=O)N[C@@H](CO)C(=O)N[C@H](C(=O)N[C@@H](CC(N)=O)C(=O)N[C@H](C(=O)NCC(=O)N[C@@H](CO)C(=O)N[C@@H](CCCNC(=N)N)C(=O)N[C@H](C(=O)N[C@@H](Cc1ccc(O)cc1)C(N)=O)[C@@H](C)O)C(C)C)[C@@H](C)O [Example 51] (H-K([γGlu-C20 diacid])CNTATCATQRLAEFLRHSSPNFGAIPSSTNVGSRTY-NH2; disulfide 2-7 (inferred); N-terminus assumed) | None of the example compounds at 30 nmol/kg trigger a notable suppression of the calcium level | 52% | 30%
≥ 200 µM | ≥ 200 µM | ≥ 200 µM | ≥ 200 µM | ≥ 200 µM | ≥ 200 µM | ≥ 200 µM | ≥ 200 µM | – | 3.44 nM | 0.887 nM | CC[C@H](C)[C@H](NC(=O)[C@H](C)NC(=O)CNC(=O)[C@H](Cc1ccccc1)NC(=O)[C@H](CC(N)=O)NC(=O)[C@@H]1CCCN1C(=O)[C@H](CO)NC(=O)[C@H](CO)NC(=O)[C@H](Cc1c[nH]cn1)NC(=O)[C@H](CCCNC(=N)N)NC(=O)[C@H](CC(C)C)NC(=O)[C@H](Cc1ccccc1)NC(=O)[C@H](CO)NC(=O)[C@H](C)NC(=O)[C@H](CC(C)C)NC(=O)[C@H](CCCNC(=N)N)NC(=O)[C@H](CCC(N)=O)NC(=O)[C@@H](NC(=O)[C@H](C)NC(=O)[C@@H]1CSSC[C@H](NC(=O)[C@@H](N)CCCCNC(=O)CC[C@H](NC(=O)CC[C@H](NC(=O)CCCCCCCCCCCCCCCCCCC(=O)O)C(=O)O)C(=O)O)C(=O)N[C@@H](CC(N)=O)C(=O)N[C@@H]([C@@H](C)O)C(=O)N[C@@H](C)C(=O)N[C@@H]([C@@H](C)O)C(=O)N1)[C@@H](C)O)C(=O)N1CCC[C@H]1C(=O)N[C@@H](CO)C(=O)N[C@@H](CO)C(=O)N[C@H](C(=O)N[C@@H](CC(N)=O)C(=O)N[C@H](C(=O)NCC(=O)N1CCC[C@H]1C(=O)N[C@@H](CCC(=O)O)C(=O)N[C@H](C(=O)N[C@@H](Cc1ccc(O)cc1)C(N)=O)[C@@H](C)O)C(C)C)[C@@H](C)O [Example 120] (H-K([γGlu-γGlu-C20 diacid])CNTATCATQRLASFLRHSSPNFGAIPSSTNVGPETY-NH2; disulfide 2-7 (inferred); N-terminus assumed) | – | – | –
≥ 200 µM | ≥ 200 µM | ≥ 200 µM | ≥ 200 µM | ≥ 200 µM | ≥ 200 µM | ≥ 200 µM | ≥ 200 µM | – | 3.27 nM | 1.11 nM | CC[C@H](C)[C@H](NC(=O)[C@H](C)NC(=O)CNC(=O)[C@H](Cc1ccccc1)NC(=O)[C@H](CC(N)=O)NC(=O)[C@@H]1CCCN1C(=O)[C@H](CO)NC(=O)[C@H](CO)NC(=O)[C@H](Cc1c[nH]cn1)NC(=O)[C@H](CCCNC(=N)N)NC(=O)[C@H](CC(C)C)NC(=O)[C@H](Cc1ccccc1)NC(=O)[C@H](CC(=O)O)NC(=O)[C@H](C)NC(=O)[C@H](CC(C)C)NC(=O)[C@H](CCCNC(=N)N)NC(=O)[C@H](CCC(N)=O)NC(=O)[C@@H](NC(=O)[C@H](C)NC(=O)[C@@H]1CSSC[C@H](NC(=O)[C@@H](N)CCCCNC(=O)CC[C@H](NC(=O)CCCCCCCCCCCCCCCCCCC(=O)O)C(=O)O)C(=O)N[C@@H](CC(N)=O)C(=O)N[C@@H]([C@@H](C)O)C(=O)N[C@@H](C)C(=O)N[C@@H]([C@@H](C)O)C(=O)N1)[C@@H](C)O)C(=O)N1CCC[C@H]1C(=O)N[C@@H](CO)C(=O)N[C@@H](CO)C(=O)N[C@H](C(=O)N[C@@H](CC(N)=O)C(=O)N[C@H](C(=O)NCC(=O)N1CCC[C@H]1C(=O)N[C@@H](CCC(=O)O)C(=O)N[C@H](C(=O)N[C@@H](Cc1ccc(O)cc1)C(N)=O)[C@@H](C)O)C(C)C)[C@@H](C)O [Example 123] (H-K([γGlu-C20 diacid])CNTATCATQRLADFLRHSSPNFGAIPSSTNVGPETY-NH2; disulfide 2-7; N-terminus assumed) | – | – | –
≥ 200 µM | 187 µM (≈ 829 µg/mL) | ≥ 200 µM | ≥ 200 µM | 102 µM (≈ 452 µg/mL) | ≥ 200 µM | ≥ 200 µM | ≥ 200 µM | – | 42.5 nM | 3.64 nM | CC[C@H](C)[C@H](NC(=O)[C@H](C)NC(=O)CNC(=O)[C@H](Cc1ccccc1)NC(=O)[C@H](CC(N)=O)NC(=O)[C@@H]1CCCN1C(=O)[C@H](CO)NC(=O)[C@H](CO)NC(=O)[C@H](Cc1c[nH]cn1)NC(=O)[C@H](CCCNC(=N)N)NC(=O)[C@H](CC(C)C)NC(=O)[C@H](Cc1ccccc1)NC(=O)[C@H](CC(=O)O)NC(=O)[C@H](C)NC(=O)[C@H](CC(C)C)NC(=O)[C@H](CCCNC(=N)N)NC(=O)[C@H](CCC(N)=O)NC(=O)[C@@H](NC(=O)[C@H](C)NC(=O)[C@@H]1CSSC[C@H](NC(=O)[C@@H](N)CCCCNC(=O)CC[C@H](NC(=O)CCCCCCCCCCCCCCCCCCC(=O)O)C(=O)O)C(=O)N[C@@H](CC(N)=O)C(=O)N[C@@H]([C@@H](C)O)C(=O)N[C@@H](C)C(=O)N[C@@H]([C@@H](C)O)C(=O)N1)[C@@H](C)O)C(=O)N1CCC[C@H]1C(=O)N[C@@H](CO)C(=O)N[C@@H](CO)C(=O)N[C@H](C(=O)N[C@@H](CC(N)=O)C(=O)N[C@H](C(=O)NCC(=O)N1CCC[C@H]1C(=O)N[C@@H](CCCNC(=N)N)C(=O)N[C@H](C(=O)N[C@@H](Cc1ccc(O)cc1)C(N)=O)[C@@H](C)O)C(C)C)[C@@H](C)O [Example 129] (H-K([γGlu-C20 diacid])CNTATCATQRLADFLRHSSPNFGAIPSSTNVGPRTY-NH2; disulfide 2-7 (inferred); N-terminus assumed) | – | – | –
